Assay results published in patent publication US20240279220A1, “INDOLE COMPOUNDS AND METHODS OF USE” (Genzyme Corporation, priority 2021, published 2024).

System: NBD1/3D
Experiment: Aggregation analysis using differential static light scattering (DSLS), NBD1 thermal stability
Format: binding, Human
Details: ΔTagg versus DMSO control; compound at 100 μM
Summary of the method: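 Purified NBD1 at 0.2 mg/ml in S200 buffer (pH 7.6, 2 mM ATP, 5 mM MgCl2, 1% glycerol) was heated with compound at 1 °C/min to 70 °C. Tagg taken from the light-scattering curve inflection point; ΔTagg = compound Tagg minus mean DMSO control Tagg.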

| Structure (SMILES) | DSLS NBD1/3D Human Stability delta-T (° C.) @ 100 (μM) |
| --- | --- |
| CC(O)(c1cccc(/C=C2\SC(=O)NC2=O)c1)c1cnc(-c2cccc(Oc3c(F)cc4[nH]ccc4c3F)c2)[nH]1 (stereo not shown) [Example 210, (Z)-5-(3-(1-(2-(3-((4,6-Difluoro-1H-indol-5-yl)oxy)phenyl)-1H-imidazol-5-yl)-1-hydroxyethyl)benzylidene)thiazolidine-2,4-dione] | B (B: 5-10° C.) |
| CC(O)(c1cccc(CC2SC(=O)NC2=O)c1)c1cnc(-c2cccc(Oc3c(F)cc4[nH]ccc4c3F)c2)[nH]1 (stereo not shown) [Example 211, 5-(3-(1-(2-(3-((4,6-Difluoro-1H-indol-5-yl)oxy)phenyl)-1H-imidazol-5-yl)-1-hydroxyethyl)benzyl)thiazolidine-2,4-dione] | B (B: 5-10° C.) |
| CC(=O)NS(=O)(=O)Cc1cccc(C(C)(O)c2cnc(-c3cccc(Oc4c(F)cc5[nH]ccc5c4F)c3)[nH]2)c1 (stereo not shown) [Example 212, N-((3-(1-(2-(3-((4,6-Difluoro-1H-indol-5-yl)oxy)phenyl)-1H-imidazol-5-yl)-1-hydroxyethyl)benzyl)sulfonyl)acetamide] | B (B: 5-10° C.) |
| Cc1c(Oc2ccc(F)c(-c3ncc(C(C)c4cccc(CCC(=O)O)c4)[nH]3)c2)c(F)cc2[nH]ccc12 (stereo not shown) [Example 213, 3-(3-(1-(2-(2-Fluoro-5-((6-fluoro-4-methyl-1H-indol-5-yl)oxy)phenyl)-1H-imidazol-5-yl)ethyl)phenyl)propanoic acid] | B (B: 5-10° C.) |
| C=C(c1cccc(CCC(=O)O)c1)c1cnc(-c2cc(Oc3c(F)cc4[nH]ccc4c3C)ccc2F)[nH]1 [Example 214, 3-(3-(1-(2-(2-Fluoro-5-((6-fluoro-4-methyl-1H-indol-5-yl)oxy)phenyl)-1H-imidazol-5-yl)vinyl)phenyl)propanoic acid] | C (C: ≤5° C.) |
| Cc1nc(-c2cc(Oc3c(F)cc4[nH]ccc4c3C)ccc2F)[nH]c1C(O)c1cccc(CCC(=O)O)c1 (stereo not shown) [Example 217, 3-(3-((2-(2-Fluoro-5-((6-fluoro-4-methyl-1H-indol-5-yl)oxy)phenyl)-4-methyl-1H-imidazol-5-yl)(hydroxy)methyl)phenyl)propanoic acid] | B (B: 5-10° C.) |
| CC(O)(c1cccc(CCC(=O)O)c1)c1c[nH]c(-c2cc(C(O)c3ccc4[nH]ccc4c3)ccc2F)n1 (stereo not shown) [Example 218, 3-(3-(1-(2-(2-Fluoro-5-(hydroxy(1H-indol-5-yl)methyl)phenyl)-1H-imidazol-4-yl)-1-hydroxyethyl)phenyl)propanoic acid] | B (B: 5-10° C.) |
| C[C@@H](O)C(=O)N1Cc2ccc(C(C)(O)c3cnc(-c4cccc(Oc5c(F)cc6[nH]ccc6c5F)c4)[nH]3)cc2C1 (stereo partly drawn) [Example 219, (2R)-1-(5-(1-(2-(3-((4,6-Difluoro-1H-indol-5-yl)oxy)phenyl)-1H-imidazol-5-yl)-1-hydroxyethyl)isoindolin-2-yl)-2-hydroxypropan-1-one] | C (C: ≤5° C.) |
| CC(O)(c1cc(F)cc(CCC(=O)O)c1)c1c[nH]c(-c2cc(Oc3c(F)cc4[nH]ccc4c3F)ccc2F)n1 (stereo not shown) [Example 220, 3-(3-(1-(2-(5-((4,6-Difluoro-1H-indol-5-yl)oxy)-2-fluorophenyl)-1H-imidazol-4-yl)-1-hydroxyethyl)-5-fluorophenyl)propanoic acid] | B (B: 5-10° C.) |
| CC(=O)CCc1cc(F)cc(C(C)(O)c2c[nH]c(-c3cc(Oc4c(F)cc5[nH]ccc5c4F)ccc3F)n2)c1 (stereo not shown) [Example 221, 4-(3-(1-(2-(5-((4,6-Difluoro-1H-indol-5-yl)oxy)-2-fluorophenyl)-1H-imidazol-4-yl)-1-hydroxyethyl)-5-fluorophenyl)butan-2-one] | C (C: ≤5° C.) |
| Cc1c(Oc2cccc(-c3ncc(C(C)(O)c4cccc(C5CC5C(=O)O)c4)[nH]3)c2)ccc2[nH]ccc12 (stereo not shown) [Example 222, 2-(3-(1-hydroxy-1-(2-(3-((4-methyl-1H-indol-5-yl)oxy)phenyl)-1H-imidazol-5-yl)ethyl)phenyl)cyclopropane-1-carboxylic acid] | B (B: 5-10° C.) |
| CCC(O)(c1cccc(CCC(=O)O)c1)c1cnc(-c2cc(Oc3c(F)cc4[nH]ccc4c3C)ccc2F)[nH]1 (stereo not shown) [Example 223, 3-(3-(1-(2-(2-fluoro-5-((6-fluoro-4-methyl-1H-indol-5-yl)oxy)phenyl)-1H-imidazol-5-yl)-1-hydroxypropyl)phenyl) propanoic acid] | B (B: 5-10° C.) |
| Cc1c(Oc2ccc(F)c(-c3ncc(C(O)(c4cccc(CCC(=O)O)c4)C(C)C)[nH]3)c2)c(F)cc2[nH]ccc12 (stereo not shown) [Example 224, 3-(3-(1-(2-(2-fluoro-5-((6-fluoro-4-methyl-1H-indol-5-yl)oxy)phenyl)-1H-imidazol-5-yl)-1-hydroxy-2-methylpropyl)phenyl) propanoic acid] | B (B: 5-10° C.) |
| CCCC(O)(c1cccc(CCC(=O)O)c1)c1c[nH]c(-c2cc(Oc3c(F)cc4[nH]ccc4c3C)ccc2F)n1 (stereo not shown) [Example 225, 3-(3-(1-(2-(2-fluoro-5-((6-fluoro-4-methyl-1H-indol-5-yl)oxy)phenyl)-1H-imidazol-4-yl)-1-hydroxybutyl)phenyl) propanoic acid] | B (B: 5-10° C.) |
| CCCCC(O)(c1cccc(CCC(=O)O)c1)c1c[nH]c(-c2cc(Oc3c(F)cc4[nH]ccc4c3C)ccc2F)n1 (stereo not shown) [Example 226, 3-(3-(1-(2-(2-fluoro-5-((6-fluoro-4-methyl-1H-indol-5-yl)oxy)phenyl)-1H-imidazol-4-yl)-1-hydroxypentyl)phenyl) propanoic acid] | B (B: 5-10° C.) |
| CC1(C)COC(c2cccc(CCC(=O)O)c2)(c2cnc(-c3cc(Oc4c(F)c(F)c5[nH]ccc5c4F)ccc3F)[nH]2)OC1 [Example 227, 3-(3-(2-(2-(2-Fluoro-5-((4,6,7-trifluoro-1H-indol-5-yl)oxy)phenyl)-1H-imidazol-5-yl)-5,5-dimethyl-1,3-dioxan-2-yl)phenyl)propanoic acid] | A (A: T ≥ 10° C.) |
| O=C(O)CCc1cccc(C2(c3cnc(-c4cc(Oc5c(F)cc6[nH]ccc6c5F)ccc4F)[nH]3)OCCCO2)c1 [Example 228, 3-(3-(2-(2-(5-((4,6-difluoro-1H-indol-5-yl)oxy)-2-fluorophenyl)-1H-imidazol-5-yl)-1,3-dioxan-2-yl)phenyl)propanoic acid] | A (A: T ≥ 10° C.) |
| O=C(O)CCc1cccc(C2(c3cnc(-c4cc(Oc5c(F)cc6[nH]ccc6c5F)ccc4F)[nH]3)OCCO2)c1 [Example 229, 3-(3-(2-(2-(5-((4,6-difluoro-1H-indol-5-yl)oxy)-2-fluorophenyl)-1H-imidazol-5-yl)-1,3-dioxolan-2-yl)phenyl)propanoic acid] | A (A: T ≥ 10° C.) |
| Cc1c(Oc2ccc(F)c(-c3ncc(C4(c5cccc(CCC(=O)O)c5)OCC(C)(C)CO4)[nH]3)c2)c(F)cc2[nH]ccc12 [Example 230, 3-(3-(2-(2-(2-fluoro-5-((6-fluoro-4-methyl-1H-indol-5-yl)oxy)phenyl)-1H-imidazol-5-yl)-5,5-dimethyl-1,3-dioxan-2-yl)phenyl)propanoic acid] | A (A: T ≥ 10° C.) |
